Experimental data reported in US20260293937A1, “SHRIMP FEED AND METHODS OF USE THEREOF” (Organicin Scientific, Inc., priority 2023, published 2026).
Where “and” joins values, the source holds several entries; their conditions need not be identical. Equal values may be shown once. No end group written: not given here.

Columns and labels:
[1] = test system: Vibrio parahaemolyticus (strain 13-028A/3); assay: AHPND immersion challenge, feed-and-survival assay in shrimp; type: in vivo, Penaeus (Litopenaeus) vannamei; details: for Group Survival: positive control 35%; for % Survival: per tank; for Survivors: per tank of 20 shrimp
Method: This Example describes the materials, methods, and results of a feed-and-survival assay in shrimp treated with a composition of the disclosure, including the bacteriocin Nisin and shrimp feed.
Specific Pathogen Free (SPF) P. vannamei at an average weight of 1 g to 2 g, were obtained from a commercial shrimp producer and reared. A total of 300 shrimp were transferred into 15 90 L glass aquaria, each aquarium stocked with 20 shrimp.
Shrimp feed diets was prepared at X, 10X, and 100X (0.84 mg/g, 8.4 mg/g, and 84 mg/g Nisin, respectively) estimated concentrations of the bacteriocin Nisin. The bacteriocin additive was combined with a 40% protein commercial shrimp premix (Rangen Inc., Buhl, Idaho), carboxymethyl cellulose at a 3% inclusion rate, and up to 40% w/v water. Exemplary components of a typical 35% protein shrimp diet were wheat flour (35%), soybean meal (20%) and fishmeal (25%). The mixture was then cold-extruded through a meat grinder to produce a 3 mm diameter size pellet strand. The resulting feed strands were dried overnight at 40° C. and broken into appropriately-sized pellets. A total of 100 g of each diet was use for this study. In all three experimental groups a minimum of 9.324 g of Nisin was used to produce the respective feed conditions.
The negative and positive control tanks were fed Rangen's commercially pelleted shrimp diet without additive.
The commercially prepared shrimp diet from juvenile Penaeus (Litopenaeus) vannameia was prepared with a bacteriocin additive at three concentrations (0.84 mg/g, 8.4 mg/g, and 84 mg/g Nisin). Experimental shrimp were orally exposed for […] Vibrio parahaemolyticus, an agent which causes Acute Hepatopancreatic Necrosis Disease (AHPND) to determine if the feed additives (provided during and after exposure) would affect survival when compared to the group that was fed an untreated diet.
All tanks were covered to reduce the risk of mortality due to shrimp jumping out. Each group of tanks was outfitted with its own equipment (e.g., nets and buckets). Each tank contained sufficient aeration and was outfitted with a pre-conditioned biological filter. Water quality tests to characterize temperature, nitrite and total ammonia were performed on tanks weekly.
Nine tanks (three per Nisin concentration) were used to house shrimp that were fed the bacteriocin-containing diet, while three tanks were used to house shrimp fed the control diet without additive. In both cases, the shrimp were fed their respective diet, followed by the AHPND challenge. The challenge was provided on 7 days at 5% of body weight per tank. Three additional tanks were used as a negative control for environmental conditions and were used to house shrimp fed the control diet and not challenged with AHPND. Additionally, the negative control tanks were be fed before the AHPND challenged tanks to reduce the risk of cross contamination.
Each tank scheduled for the AHPND challenge was subjected to an immersion challenge. Tryptic Soy Broth +2% (TSB+) sodium chloride was inoculated with a consistently virulent strain of Vibrio parahaemolyticus (strain 13-028A/3), incubated for 18 hours, and added directly into each challenge tank. The bacterial suspension was added into each tank to achieve the bacterial density measured by optical density absorbance (OD600 nm) at approximately […].
Two animals were preserved in Davidson's AFA fixative prior to the start of the study to document the SPF health status of the population by histology.
All tanks were checked twice a day for dead or moribund animals. During the study, any mortalities were removed from the tank and frozen at −20° C. Up to two moribund animals from each diet group, including the positive control tanks, were preserved in Davidson's AFA fixative and processed for routine histology to confirm an AHPND infection (up to 12 P. vannamei processed for histology during the challenge period). […]

[2] = test system: brine shrimp (Artemia salina); assay: Brine shrimp toxicity of Nisin formulations (Example 4); type: in vivo; details: Nisin in citric acid buffer solution, reduced pH; data not shown
Method: This Example describes the efficacy of various Nisins: Nisin Z, Nisin A, and ImmuCell Nisin A. This experiment assessed the safety and antimicrobial efficacy of various Nisin formulations in treating Vibrio parahaemolyticus infections, a common pathogen in aquaculture environments. Brine shrimp (Artemia salina) were utilized as a model organism to simulate potential impacts on Pacific whiteleg shrimp (Penaeus vannamei).
Nisin variants (Nisin A, Nisin Z, and ImmuCell Nisin A) were dissolved in either citric acid buffer (CAB, pH 3.4) for Nisin A or dH2O for Nisin Z to make a stock solution of 4.86 mg/mL. Serial dilutions were performed to achieve the different concentrations (4.86 mg/mL to 0.005 mg/mL) for the experiments.
Artemia salina eggs were hatched in artificial seawater (Instant Ocean) under controlled conditions. Newly hatched brine shrimp were then exposed to varying concentrations of each Nisin solution in experimental tanks. A separate set of tanks was used for each type of Nisin formulation.
Control tanks (treated with either CAB or saline water) were prepared to observe the natural behavior and survival rate of Artemia salina without Nisin exposure.
Brine shrimp were divided into different tanks for exposure to varying concentrations (2.43 mg/mL, 0.608 mg/mL, 0.152 mg/mL, and 0.038 mg/mL) of Nisin A, Nisin Z, and ImmuCell Nisin A.
Mortality and behavior of the brine shrimp were recorded at 24 and 48 hours post-exposure. For the antimicrobial tests, the diameter of inhibition zones on agar plates containing the laboratory control strains were measured and recorded.

Substance: Nisin: Nisin (Immucell; 99% pure) in Example 1; bacteriocin Nisin in shrimp feed at 0.84, 8.4 and 84 mg/g in Example 2 (ITSISLCTPGCKTGALMGCNMKTATCHCSIHVSK; cysteine pairing not given here; also: lantibiotic, modifications not placed; UniProt P13068 24-57, looked up)
- cumulative survival vs positive control group ([1]; 0.84 mg/g Nisin in feed): statistically significant difference in cumulative survival
- deaths pre-challenge ([1]; 0.84 mg/g Nisin in feed): 4
- increase in relative survival of AHPND-challenged shrimp ([1]; 0.84 mg/g Nisin in feed vs positive controls, statistically significant): 265%
- survival of AHPND-challenged shrimp ([1]; 0.84 mg/g Nisin in feed, pre-challenge deaths excluded, positive controls 35%): 100%
- survival rate vs positive controls ([1]; 8.4 mg/g Nisin in feed): significantly higher than the positive controls
- deaths ([1]; 84 mg/g Nisin in feed): not a single death
- survival vs positive controls ([1]; 84 mg/g Nisin in feed): statistically significant as compared to the positive controls
- Mortalities by Day ([1]; 1X (0.84 mg/g Nisin in feed), day 0, per tank): 0
- Mortalities by Day ([1]; 1X (0.84 mg/g Nisin in feed), day 2, per tank): 0
- Mortalities by Day ([1]; 1X (0.84 mg/g Nisin in feed), day 3, per tank): 0
- Mortalities by Day ([1]; 1X (0.84 mg/g Nisin in feed), day 4, per tank): 0
- Mortalities by Day ([1]; 1X (0.84 mg/g Nisin in feed), day 5, per tank): 0
- Mortalities by Day ([1]; 1X (0.84 mg/g Nisin in feed), day 6, per tank): 0
- Mortalities by Day ([1]; 1X (0.84 mg/g Nisin in feed), day 7, per tank): 0
- Mortalities by Day ([1]; 1X (0.84 mg/g Nisin in feed), day 8, per tank): 0
- Mortalities by Day ([1]; 1X (0.84 mg/g Nisin in feed), day 9, per tank): 0
- Mortalities by Day ([1]; 1X (0.84 mg/g Nisin in feed), day 10, per tank): 0
- Mortalities by Day ([1]; 1X (0.84 mg/g Nisin in feed), day 11, per tank): 0
- Mortalities by Day ([1]; 1X (0.84 mg/g Nisin in feed), day 12, per tank): 0
- Mortalities by Day ([1]; 1X (0.84 mg/g Nisin in feed), day 13, per tank): 0
- Mortalities by Day ([1]; 1X (0.84 mg/g Nisin in feed), day 14, per tank): 0
- Mortalities by Day ([1]; 1X (0.84 mg/g Nisin in feed), day 15, per tank): 0
- Mortalities by Day ([1]; 1X (0.84 mg/g Nisin in feed), day 16, per tank): 0
- Group Survival ([1]; 1X (0.84 mg/g Nisin in feed), overall): 93%
- % Survival ([1]; 1X (0.84 mg/g Nisin in feed)): 95% and 90%
- Survivors ([1]; 1X (0.84 mg/g Nisin in feed)): 19 and 18
- Mortalities by Day ([1]; 10X (8.4 mg/g Nisin in feed), day 0, per tank): 0
- Mortalities by Day ([1]; 10X (8.4 mg/g Nisin in feed), day 1, per tank): 0
- Mortalities by Day ([1]; 10X (8.4 mg/g Nisin in feed), day 2, per tank): 0
- Mortalities by Day ([1]; 10X (8.4 mg/g Nisin in feed), day 3, per tank): 0
- Mortalities by Day ([1]; 10X (8.4 mg/g Nisin in feed), day 4, per tank): 0
- Mortalities by Day ([1]; 10X (8.4 mg/g Nisin in feed), day 5, per tank): 0
- Mortalities by Day ([1]; 10X (8.4 mg/g Nisin in feed), day 6, per tank): 0
- Mortalities by Day ([1]; 10X (8.4 mg/g Nisin in feed), day 7, per tank): 0
- Mortalities by Day ([1]; 10X (8.4 mg/g Nisin in feed), day 13, per tank): 0
- Mortalities by Day ([1]; 10X (8.4 mg/g Nisin in feed), day 14, per tank): 0
- Mortalities by Day ([1]; 10X (8.4 mg/g Nisin in feed), day 15, per tank): 0
- Mortalities by Day ([1]; 10X (8.4 mg/g Nisin in feed), day 16, per tank): 0
- % Survival ([1]; 10X (8.4 mg/g Nisin in feed)): 85% and 75% and 45%
- Survivors ([1]; 10X (8.4 mg/g Nisin in feed)): 17 and 15 and 9
- Group Survival ([1]; 10X (8.4 mg/g Nisin in feed)): 68%
- Mortalities by Day ([1]; 100X (84 mg/g Nisin in feed), day 0, per tank): 0
- Mortalities by Day ([1]; 100X (84 mg/g Nisin in feed), day 1, per tank): 0
- Mortalities by Day ([1]; 100X (84 mg/g Nisin in feed), day 2, per tank): 0
- Mortalities by Day ([1]; 100X (84 mg/g Nisin in feed), day 3, per tank): 0
- Mortalities by Day ([1]; 100X (84 mg/g Nisin in feed), day 4, per tank): 0
- Mortalities by Day ([1]; 100X (84 mg/g Nisin in feed), day 5, per tank): 0
- Mortalities by Day ([1]; 100X (84 mg/g Nisin in feed), day 6, per tank): 0
- Mortalities by Day ([1]; 100X (84 mg/g Nisin in feed), day 7, per tank): 0
- Mortalities by Day ([1]; 100X (84 mg/g Nisin in feed), day 8, per tank): 0
- Mortalities by Day ([1]; 100X (84 mg/g Nisin in feed), day 9, per tank): 0
- Mortalities by Day ([1]; 100X (84 mg/g Nisin in feed), day 10, per tank): 0
- Mortalities by Day ([1]; 100X (84 mg/g Nisin in feed), day 11, per tank): 0
- Mortalities by Day ([1]; 100X (84 mg/g Nisin in feed), day 12, per tank): 0
- Mortalities by Day ([1]; 100X (84 mg/g Nisin in feed), day 13, per tank): 0
- Mortalities by Day ([1]; 100X (84 mg/g Nisin in feed), day 14, per tank): 0
- Mortalities by Day ([1]; 100X (84 mg/g Nisin in feed), day 15, per tank): 0
- Mortalities by Day ([1]; 100X (84 mg/g Nisin in feed), day 16, per tank): 0
- % Survival ([1]; 100X (84 mg/g Nisin in feed)): 100%
- Survivors ([1]; 100X (84 mg/g Nisin in feed)): 20
- Group Survival ([1]; 100X (84 mg/g Nisin in feed)): 100%
- shrimp survival ([1]; Nisin and shrimp feed, dose as low as 0.84 mg/g): significant increase in shrimp survival
- cause of mortality in toxicity trials [2]: mortality that is not related to the peptide Nisin itself
